Laboratory results from patent US9814796B2, “Methods for sterilization and/or disinfection” (P[…] OF NEVADA, LLC, priority 2015, dated 2017).
Like-named read-outs stand apart in the source and are kept apart here.

What was measured:
[1] = tested on: Bacillus atrophaeus ATCC 9372 spores; conditions: conventional usage regime; cited from earlier work
[2] = tested on: Bacillus atrophaeus ATCC 9372 spores; conditions: 28% hydrogen peroxide, 65° C.
Excerpt: The mixture was then serially ten-fold diluted in saline and spread-plated on tryptic soy agar.

[3] = tested on: Bacillus atrophaeus ATCC 9372 spores; experiment: Efficacy usage regimes of hydrogen peroxide and peracetic acid as compared to performic acid; assay type: cell-based; conditions: performic acid regime per Table 3
Method: For example, temperatures greater than about 55° C. to 65° C. and exposure times greater than about fifteen seconds may be employed in conventional techniques.

Compound | Efficacy usage regime: Temperature [1] | Efficacy usage regime: Time [1] | contact time per one logarithm of spore inactivation [2] | Efficacy usage regime: Temperature [3] | Efficacy usage regime: Time [3]
OO [Hydrogen Peroxide, hydrogen peroxide] | 65 °C | 15 to 30 s | seven |  | 
CC(=O)OO [Peracetic Acid, peracetic acid] | 55 °C | 15 s |  |  | 
performic acid |  |  |  | Room Temperature | 5 s
